# Reference: US9682131B2, “Compositions and method for utilization of thioretinamide in therapy of degenerative diseases of aging” (priority 2011, dated 2017)
# Columns and labels:
# [1] = test system: transplanted murine mammary adenocarcinoma; conditions: Chemotherapy 1977; 23:44-49; cited from earlier work
# [2] = test system: normal and hypophysectomized animals; conditions: Science 1976, 192:372-374, cited from earlier work
# transplanted neoplasms = conditions: cited from earlier work; for growth of transplanted neoplasms in animals: U.S. Pat. No. 4,383,994
# Toxicity in animal tests = conditions: 7.5 mg/70 kg/day to 300 mg/70 kg/day
# Toxicity in human trials = conditions: 7.5 mg/70 kg/day to 300 mg/70 kg/day
# [3] = test system: transplanted malignant neoplasms; conditions: animals with transplanted malignant neoplasms; U.S. Pat. No. 4,255,443; cited from earlier work
# retinal cells = conditions: through reactive oxygen species generation and increased expression of heme oxygenase; J Cell Physiol 2006; cited from earlier work
# [4] = Carcinogenesis 1987; 8:1559-1562; Proc Soc Exp Biol Med 1989; 191:346-351; cited from earlier work
# [5] = test system: rats treated with parenteral homocysteine thiolactone; conditions: Kazimir et al 2002; cited from earlier work
molecule,measurement,setting,value
pyridoxal homocysteine thiolactone enamine,growth of transplanted murine mammary adenocarcinoma,[1],decrease the growth
N[C@@H](CCS(=O)(=O)O)C(=O)O [Homocysteic acid],"growth and release of insulin-like growth factor, IGF-1",[2]; hypophysectomized animals treated with thyroxine,"promotes growth and release of insulin-like growth factor, IGF-1"
same,growth in normal animals,[2]; normal animals,promotes growth
N-maleyl homocysteine thiolactone amide,growth of transplanted neoplasms in animals,transplanted neoplasms,suppress the growth
CC1=C(/C=C/C(C)=C/C=C/C(C)=C/CO)C(C)(C)CCC1 [retinol],"evidence of toxicity, such as weight loss, nausea, impairment of liver function, headache, or skin lesions",Toxicity in animal tests,no evidence of toxicity
same,"evidence of toxicity, such as weight loss, nausea, impairment of liver function, headache, or skin lesions",Toxicity in human trials,no evidence of toxicity
N[C@H]1CCSC1=O.[O-][Cl+3]([O-])([O-])O [homocysteine thiolactone perchlorate],necrosis within malignant neoplasms,[3],increased necrosis within malignant neoplasms
"CC1=C(/C=C/C(C)=C/C=C/C(C)=C/C(=O)Nc2ccc(O)cc2)C(C)(C)CCC1 [fenretinide, N-(4-hydroxyphenyl)-retinamide]",apoptosis in retinal cells,retinal cells,induces apoptosis
"CC1=C(/C=C/C(C)=C/C=C/C(C)=C/C(=O)NC2CCSC2=O)C(C)(C)CCC1 (stereo not shown) [thioretinamide, N-homocysteine thiolactonyl retinamide]",anti-carcinogenic and anti-neoplastic activities,[4],have anti-carcinogenic and anti-neoplastic activities
same,anti-atherogenic activity,[5],have anti-atherogenic activity
CCCCC/C=C/C/C=C/C/C=C/C/C=C/CCCC(=O)NC1CCSC1=O (stereo not shown) [Arachidonoyl homocysteine thiolactone amide],growth of transplanted murine mammary adenocarcinoma,[1],decrease the growth
N-homocysteine thiolactonyl retinamido cobalamin [thioretinaco],anti-carcinogenic and anti-neoplastic activities,[4],have anti-carcinogenic and anti-neoplastic activities
same,anti-atherogenic activity,[5],have anti-atherogenic activity
N-maleamide homocysteine thiolactone amide,growth of transplanted neoplasms in animals,transplanted neoplasms,suppress the growth
same,effect of encapsulation within liposomes on anti-neoplastic activity,"transplanted neoplasms; encapsulated within liposomes, Proc Soc Exp Biol Med 1985, 180:57-61",greatly enhances its anti-neoplastic activity
rhodium trichloride oxalyl homocysteine thiolactone amide,growth of transplanted neoplasms in animals,transplanted neoplasms,suppress the growth
